Measured values published in publication PMC12191596, “Gene Expression and Enzyme Kinetics of Polyphenol Oxidases in Strawberry and Their Possible Involvement in Enzymatic Browning Reactions in Strawberry Nectar” (Foods, 2025).
One block for each molecule: values may come before it.

Legend:
PPO2 (FaPPO 2) [1] = tested on: T1, PPO2 (FaPPO 2); assay: spectrophotometry, […] nm; format: biochemical, Fragaria vesca; details: 50 mM Tris-HCl pH 7, 0.7 mM SDS, 25 °C
T1 construct: latent PPO, transit peptide removed, C-terminal shielding domain kept, N-terminal 6xHis tag, non-codon-optimized cDNA, pET28, E. coli BL21(DE3)

PPO4 (FaPPO 4) [2] = assay: spectrophotometry, […] nm; format: biochemical, Fragaria vesca; details: 50 mM Tris-HCl pH 7, 1 mM SDS, 25 °C
PPO1 (FaPPO 1) [3] = tested on: T2, PPO1 (FaPPO 1); assay: spectrophotometry, […] nm; format: biochemical; details: 50 mM Tris-HCl pH 7, 0.7 mM SDS, 25 °C
T2 construct: latent PPO, transit peptide removed, C-terminal shielding domain kept, N-terminal 6xHis tag, pET28, E. coli BL21(DE3)

PPO1 (FaPPO 1) [4] = tested on: T2, PPO1 (FaPPO 1); assay: spectrophotometry, […] nm; format: biochemical; details: 50 mM Tris-HCl pH 7, 0.7 mM SDS, 25 °C; remark: listed apart in the source
PPO4 (FaPPO 4) [5] = assay: spectrophotometry, […] nm; format: biochemical, Fragaria vesca; details: 50 mM Tris-HCl pH 7, 1 mM SDS, 25 °C; remark: listed apart in the source
PPO2 (FaPPO 2) [6] = tested on: T1, PPO2 (FaPPO 2); assay: spectrophotometry, […] nm; format: biochemical, Fragaria vesca; details: 50 mM Tris-HCl pH 7, 0.7 mM SDS, 25 °C; remark: listed apart in the source
PPO4 (FaPPO 4) [7] = assay: spectrophotometry, […] nm; format: biochemical, Fragaria vesca; details: 50 mM Tris-HCl pH 7, 1 mM SDS, 25 °C; remark: listed apart in the source
PPO1 (FaPPO 1) [8] = tested on: T2, PPO1 (FaPPO 1); assay: spectrophotometry, […] nm; format: biochemical; details: 50 mM Tris-HCl pH 7, 0.7 mM SDS, 25 °C; remark: listed apart in the source
PPO2 (FaPPO 2) [9] = tested on: T1, PPO2 (FaPPO 2); assay: spectrophotometry, […] nm; format: biochemical, Fragaria vesca; details: 50 mM Tris-HCl pH 7, 0.7 mM SDS, 25 °C; remark: listed apart in the source
PPO4 (FaPPO 4) [10] = assay: spectrophotometry, […] nm; format: biochemical, Fragaria vesca; details: 50 mM Tris-HCl pH 7, 1 mM SDS, 25 °C; remark: listed apart in the source
PPO1 (FaPPO 1) [11] = tested on: T2, PPO1 (FaPPO 1); assay: spectrophotometry, […] nm; format: biochemical; details: 50 mM Tris-HCl pH 7, 0.7 mM SDS, 25 °C; remark: listed apart in the source
PPO2 (FaPPO 2) [12] = tested on: T1, PPO2 (FaPPO 2); assay: spectrophotometry, […] nm; format: biochemical, Fragaria vesca; details: 50 mM Tris-HCl pH 7, 0.7 mM SDS, 25 °C; remark: listed apart in the source
PPO2 (FaPPO 2) [13] = tested on: T1, PPO2 (FaPPO 2); assay: spectrophotometry, […] nm, Hill fit; format: biochemical, Fragaria vesca; details: 50 mM Tris-HCl pH 7, 0.7 mM SDS, 25 °C, cooperative
PPO1 (FaPPO 1) [14] = tested on: T2, PPO1 (FaPPO 1); assay: spectrophotometry, […] nm, Hill fit; format: biochemical; details: 50 mM Tris-HCl pH 7, 0.7 mM SDS, 25 °C, cooperative
PPO4 (FaPPO 4) [15] = assay: spectrophotometry, […] nm; format: biochemical, Fragaria vesca; details: 50 mM Tris-HCl pH 7, 1 mM SDS, 25 °C; remark: listed apart in the source
PPO1 (FaPPO 1) [16] = tested on: T2, PPO1 (FaPPO 1); assay: spectrophotometry, […] nm; format: biochemical; details: 50 mM Tris-HCl pH 7, 0.7 mM SDS, 25 °C; remark: listed apart in the source
PPO2 (FaPPO 2) [17] = tested on: T1, PPO2 (FaPPO 2); assay: spectrophotometry, […] nm; format: biochemical, Fragaria vesca; details: 50 mM Tris-HCl pH 7, 0.7 mM SDS, 25 °C; remark: listed apart in the source

Structure (SMILES): NCCc1ccc(O)cc1 [Tyramine]
- Km (PPO2 (FaPPO 2) [1]): 600 ± 100 µM
- Km (PPO4 (FaPPO 4) [2]): 1300 ± 100 µM
- Km (PPO1 (FaPPO 1) [3]): 500 ± 100 µM

- Km (PPO1 (FaPPO 1) [4]): 2700 ± 400 µM
- Km (PPO4 (FaPPO 4) [5]): 1300 ± 200 µM
- Km (PPO2 (FaPPO 2) [6]): 1300 ± 200 µM
Structure (SMILES): O=C(/C=C/c1ccc(O)c(O)c1)O[C@@H]1C[C@](O)(C(=O)O)C[C@@H](O)[C@H]1O [Chlorogenic acid]

Structure (SMILES): Oc1ccccc1O [Catechol]
- Km (PPO1 (FaPPO 1) [4]): 27000 ± 2000 µM
- Km (PPO4 (FaPPO 4) [5]): 39000 ± 12000 µM
- Km (PPO2 (FaPPO 2) [6]): 7500 ± 600 µM

- Km (PPO4 (FaPPO 4) [7]): 870 ± 80 µM
- Km (PPO1 (FaPPO 1) [8]): 120 ± 30 µM
- Km (PPO2 (FaPPO 2) [9]): 190 ± 40 µM
Structure (SMILES): Oc1cc(O)c2c(c1)O[C@H](c1ccc(O)c(O)c1)[C@@H](O)C2 [Catechin]

- Km (PPO4 (FaPPO 4) [10]): 3200 ± 1600 µM
- Km (PPO1 (FaPPO 1) [11]): 2000 ± 400 µM
- Km (PPO2 (FaPPO 2) [12]): 5700 ± 1900 µM
Structure (SMILES): N[C@@H](Cc1ccc(O)c(O)c1)C(=O)O [L-DOPA]

- Km (PPO2 (FaPPO 2) [13]): 600 ± 400 µM
- Km (PPO1 (FaPPO 1) [14]): 82 ± 4 µM
Structure (SMILES): O=C(CCc1ccc(O)cc1)c1c(O)cc(O)cc1O [Phloretin]

Structure (SMILES): NCCc1ccc(O)c(O)c1 [Dopamine]
- Km (PPO4 (FaPPO 4) [15]): 990 ± 110 µM
- Km (PPO1 (FaPPO 1) [16]): 600 ± 100 µM
- Km (PPO2 (FaPPO 2) [17]): 950 ± 120 µM
